Source: ChEMBL document CHEMBL1156329, “Bioisostere of valtrate, anti-HIV principle by inhibition for nuclear export of Rev” (Bioorg Med Chem Lett, 2010)
Active and inactive are the calls of the source. No cut-off for these calls is given here.

Columns and labels:
[1] = Inhibition of hemagglutininin-tagged HIV1 Rev protein nuclear export in human HeLa cells assessed as protein localization after 12 hrs by indirect fluorescent antibody technique; format: cell-based, Human immunodeficiency virus 1
[2] = system: HeLa; assay: Inhibition of hemagglutininin-tagged HIV1 Rev protein nuclear export in human HeLa cells assessed as protein localization at 10 uM after 12 hrs by indirect fluorescent antibody technique; format: cell-based; settings: Human immunodeficiency virus 1

IC50 [1]	Compound	inhibition [2]
2.5 µM	CC(=O)OCC1=CO[C@@H](OC(=O)CC(C)C)[C@H]2C1=C[C@H](OC(=O)CC(C)C)[C@]21CO1 [VALTRATE]	
4.4 µM	CC(=O)OCC1=CO[C@@H](OC(=O)CC(C)C)[C@H]2[C@@H]1C[C@H](OC(=O)CC(C)C)[C@]21CO1	Active
